Measurements reported in patent publication US8354416B2 (Glaxo Group Limited, priority 2005, dated 2013).
Where a name gives a salt, the structure may show the parent alone.

The compounds below were run on influx of neutrophils to the lung in LPS-challenged rats (assay: Rat LPS neutrophilia model). Conditions: intratracheal, LPS aerosol 100 ug/ml, in at least one of the range of conditions tested, significance p<0.05.
Format: in vivo
Procedure: Rat LPS Neutrophilia Model
The effect of compounds on the influx of neutrophils to the lung in LPS-challenged rats is evaluated as follows. The test compound is suspended in one of the following solutions: 0.5% tween 80/PBS, 0.5% tween 80/saline, 10% EtOH/saline (with pH adjusted to 2.0, or 8.0 with HCl, or unadjusted), Saline (pH 2.0, 6.5 or 8.0, 0.5% Tragacanth, 1% DMSO/20% Encapsin/Saline, or acidified 5% Tragacanth. The suspension process may be aided by the use of a glass homogenizer. For intratracheal administration, the animals are anesthetized with inhaled isoflurane and placed in a supine position, the trachea is intubated with a steel gavage needle (1.5 inch, 22 gauge, small ball) or a Penn-Century Microsprayer Aerosolizer (model IA-1B) and 200 ul of dosing solution is delivered. The animals are visually monitored during the recovery process, which typically occurs within two minutes. It is noted that the test compounds may be alternatively administered via the microsprayer in a dry powder blend with a suitable excipient, such as lactose.
Rats treated with compound or vehicle (15 min-24 hours pretreatment) are exposed to an LPS aerosol (100 ug/ml) for 15 min. Four hours later the rats are euthanized with pentobarbital (100 mg/kg, i.p.) and the airways are lavaged with 5 washes of 5 ml of phosphate buffered saline. The harvested cells are stained (Diffquick) and counted to determine total and differential cell data. […] Inhibition of neutrophil levels relative to no compound controls is calculated based on the differential counts.
The data is obtained as % inhibition using a particular concentration and pretreat time.
With `CNCCNc1nc(-c2cc(C(=O)NC(C)C)ccc2C)c2ccc(=O)n(-c3c(F)cccc3F)c2n1` [Example 57, 3-(8-(2,6-difluorophenyl)-2-{[2-(methylamino)ethyl]amino}-7-oxo-7,8-dihydropyrido[2,3-d]pyrimidin-4-yl)-4-methyl-N-(1-methylethyl)benzamide] the “inhibition of neutrophilia (neutrophil levels in airway lavage relative to no compound controls)” value was “statistically significant inhibition of neutrophilia”. For `Cc1ccc(C(=O)Nc2ccc(F)cc2)cc1-c1nc(N2CCC(N)CC2)nc2c1ccc(=O)n2-c1c(F)cccc1F` [Example 72, 3-[2-(4-amino-1-piperidinyl)-8-(2,6-difluorophenyl)-7-oxo-7,8-dihydropyrido[2,3-d]pyrimidin-4-yl]-N-(4-fluorophenyl)-4-methylbenzamide], the “inhibition of neutrophilia (neutrophil levels in airway lavage relative to no compound controls)” value was “statistically significant inhibition of neutrophilia”. `CNC1CCN(c2nc(-c3cc(C(=O)NC(C)C)ccc3C)c3ccc(=O)n(-c4c(F)cccc4F)c3n2)CC1` [113(b), 3-{8-(2,6-difluorophenyl)-2-[4-(methylamino)-1-piperidinyl]-7-oxo-7,8-dihydropyrido[2,3-d]pyrimidin-4-yl}-4-methyl-N-(1-methylethyl)benzamide] was tested, and the “inhibition of neutrophilia (neutrophil levels in airway lavage relative to no compound controls)” value was “statistically nonsignificant inhibition of neutrophilia”. With `Cc1ccc(C(=O)NC2CC2)cc1-c1nc(N2CCC(N3CCC(C)CC3)CC2)nc2c1ccc(=O)n2-c1c(F)cccc1F` [Example 178, N-cyclopropyl-3-[8-(2,6-difluorophenyl)-2-(4-methyl-1,4′-bipiperidin-1′-yl)-7-oxo-7,8-dihydropyrido[2,3-d]pyrimidin-4-yl]-4-methylbenzamide] the “inhibition of neutrophilia (neutrophil levels in airway lavage relative to no compound controls)” value was “statistically nonsignificant inhibition of neutrophilia”. With `Cc1ccc(C(=O)NCc2ccccc2)cc1-c1nc(N2CCC(N)CC2)nc2c1ccc(=O)n2-c1c(F)cccc1F` [Example 71, 3-[2-(4-amino-1-piperidinyl)-8-(2,6-difluorophenyl)-7-oxo-7,8-dihydropyrido[2,3-d]pyrimidin-4-yl]-4-methyl-N-(phenylmethyl)benzamide] the “inhibition of neutrophilia (neutrophil levels in airway lavage relative to no compound controls)” value was “statistically nonsignificant inhibition of neutrophilia”. `CNCCNc1nc(-c2cc(C(=O)NCCc3ccccc3)ccc2C)c2ccc(=O)n(-c3c(F)cccc3F)c2n1` [Example 29, 3-(8-(2,6-difluorophenyl)-2-{[2-(methylamino)ethyl]amino}-7-oxo-7,8-dihydropyrido[2,3-d]pyrimidin-4-yl)-4-methyl-N-(2-phenylethyl)benzamide] was tested, and the “inhibition of neutrophilia (neutrophil levels in airway lavage relative to no compound controls)” value was “statistically significant inhibition of neutrophilia”. In the case of `CCNC(=O)c1ccc(C)c(-c2nc(N3CCC(N4CCC(C)CC4)CC3)nc3c2ccc(=O)n3-c2c(F)cccc2F)c1` [Example 173, 3-[8-(2,6-difluorophenyl)-2-(4-methyl-1,4′-bipiperidin-1′-yl)-7-oxo-7,8-dihydropyrido[2,3-d]pyrimidin-4-yl]-N-ethyl-4-methylbenzamide], the “inhibition of neutrophilia (neutrophil levels in airway lavage relative to no compound controls)” value was “statistically significant inhibition of neutrophilia”. `Cc1ccc(NC(=O)c2cccc3cc[nH]c23)cc1-c1nc(NC(CO)CO)nc2c1ccc(=O)n2-c1c(F)cccc1F` [Example 44, N-[3-(8-(2,6-difluorophenyl)-2-{[2-hydroxy-1-(hydroxymethyl)ethyl]amino}-7-oxo-7,8-dihydropyrido[2,3-d]pyrimidin-4-yl)-4-methylphenyl]-1H-indole-7-carboxamide trifluoroacetate] was tested, and the “inhibition of neutrophilia (neutrophil levels in airway lavage relative to no compound controls)” value was “statistically significant inhibition of neutrophilia”. `Cc1ccc(C(=O)Nc2ccc(F)cc2)cc1-c1nc(N(C)CCCN(C)C)nc2c1ccc(=O)n2-c1c(F)cccc1F` [Example 115, 3-{8-(2,6-difluorophenyl)-2-[[3-(dimethylamino)propyl](methyl)amino]-7-oxo-7,8-dihydropyrido[2,3-d]pyrimidin-4-yl}-N-(4-fluorophenyl)-4-methylbenzamide] was tested, and the “inhibition of neutrophilia (neutrophil levels in airway lavage relative to no compound controls)” value was “statistically nonsignificant inhibition of neutrophilia”. For `Cc1ccc(C(=O)NCc2ccccc2)cc1-c1nc(NCc2ncc[nH]2)nc2c1ccc(=O)n2-c1c(F)cccc1F` [Example 77, 3-{8-(2,6-difluorophenyl)-2-[(1H-imidazol-2-ylmethyl)amino]-7-oxo-7,8-dihydropyrido[2,3-d]pyrimidin-4-yl}-4-methyl-N-(phenylmethyl)benzamide], the “inhibition of neutrophilia (neutrophil levels in airway lavage relative to no compound controls)” value was “statistically significant inhibition of neutrophilia”. In the case of `Cc1ccc(C(=O)Nc2ccc(F)cc2)cc1-c1nc(NCCN(C)C(=O)OC(C)(C)C)nc2c1ccc(=O)n2-c1c(F)cccc1F` [Example 95, 1,1-dimethylethyl (2-{[8-(2,6-difluorophenyl)-4-(5-{[(4-fluorophenyl)amino]carbonyl}-2-methylphenyl)-7-oxo-7,8-dihydropyrido[2,3-d]pyrimidin-2-yl]amino}ethyl)methylcarbamate], the “inhibition of neutrophilia (neutrophil levels in airway lavage relative to no compound controls)” value was “statistically nonsignificant inhibition of neutrophilia”. `Cc1ccc(C(=O)NCC2CC2)cc1-c1nc(N2CCC(N)CC2)nc2c1ccc(=O)n2-c1c(F)cccc1F` [Example 27, 3-[2-(4-amino-1-piperidinyl)-8-(2,6-difluorophenyl)-7-oxo-7,8-dihydropyrido[2,3-d]pyrimidin-4-yl]-N-(cyclopropylmethyl)-4-methylbenzamide] was tested, and the “inhibition of neutrophilia (neutrophil levels in airway lavage relative to no compound controls)” value was “statistically significant inhibition of neutrophilia”. In the case of `CCN(CC)CCCNc1nc(-c2cc(C(=O)NC3CCC3)ccc2C)c2ccc(=O)n(-c3c(F)cccc3F)c2n1` [Example 137, N-cyclobutyl-3-[2-{[3-(diethylamino)propyl]amino}-8-(2,6-difluorophenyl)-7-oxo-7,8-dihydropyrido[2,3-d]pyrimidin-4-yl]-4-methylbenzamide trifluoroacetate], the “inhibition of neutrophilia (neutrophil levels in airway lavage relative to no compound controls)” value was “statistically significant inhibition of neutrophilia”. In the case of `Cc1ccc(C(=O)Nc2ccc(F)cc2)cc1-c1nc(NCc2ncc[nH]2)nc2c1ccc(=O)n2-c1c(F)cccc1F` [Example 78, 3-{8-(2,6-difluorophenyl)-2-[(1H-imidazol-2-ylmethyl)amino]-7-oxo-7,8-dihydropyrido[2,3-d]pyrimidin-4-yl}-N-(4-fluorophenyl)-4-methylbenzamide], the “inhibition of neutrophilia (neutrophil levels in airway lavage relative to no compound controls)” value was “statistically significant inhibition of neutrophilia”. With `CCN(CC)CCCNc1nc(-c2cc(C(=O)NCC3CCCCC3)ccc2C)c2ccc(=O)n(-c3c(F)cccc3F)c2n1` [Example 135, N-(cyclohexylmethyl)-3-[2-{[3-(diethylamino)propyl]amino}-8-(2,6-difluorophenyl)-7-oxo-7,8-dihydropyrido[2,3-d]pyrimidin-4-yl]-4-methylbenzamidetrifluoroacetate] the “inhibition of neutrophilia (neutrophil levels in airway lavage relative to no compound controls)” value was “inactive”. For `CCCNC(=O)c1cc(F)c(C)c(-c2nc(NCCCN(CC)CC)nc3c2ccc(=O)n3-c2c(F)cccc2F)c1` [Example 181, 3-[2-{[3-(diethylamino)propyl]amino}-8-(2,6-difluorophenyl)-7-oxo-7,8-dihydropyrido[2,3-d]pyrimidin-4-yl]-5-fluoro-4-methyl-N-propylbenzamide], the “inhibition of neutrophilia (neutrophil levels in airway lavage relative to no compound controls)” value was “statistically nonsignificant inhibition of neutrophilia”. For `CCCNC(=O)c1ccc(C)c(-c2nc(N3CCC(N)CC3)nc3c2ccc(=O)n3-c2c(F)cccc2F)c1` [Example 69, 3-[2-(4-amino-1-piperidinyl)-8-(2,6-difluorophenyl)-7-oxo-7,8-dihydropyrido[2,3-d]pyrimidin-4-yl]-4-methyl-N-propylbenzamide], the “inhibition of neutrophilia (neutrophil levels in airway lavage relative to no compound controls)” value was “statistically significant inhibition of neutrophilia”. In the case of `CCN(CC)CCCNc1nc(-c2cc(C(=O)Nc3ccccc3)ccc2C)c2ccc(=O)n(-c3c(F)cccc3F)c2n1` [Example 147, 3-[2-{[3-(diethylamino)propyl]amino}-8-(2,6-difluorophenyl)-7-oxo-7,8-dihydropyrido[2,3-d]pyrimidin-4-yl]-4-methyl-N-phenylbenzamide], the “inhibition of neutrophilia (neutrophil levels in airway lavage relative to no compound controls)” value was “statistically nonsignificant inhibition of neutrophilia”. For `CCCNC(=O)c1ccc(C)c(-c2nc(N(C)CCCN(C)C)nc3c2ccc(=O)n3-c2c(F)cccc2F)c1` [Example 104, 3-{8-(2,6-difluorophenyl)-2-[[3-(dimethylamino)propyl](methyl)amino]-7-oxo-7,8-dihydropyrido[2,3-d]pyrimidin-4-yl}-4-methyl-N-propylbenzamide], the “inhibition of neutrophilia (neutrophil levels in airway lavage relative to no compound controls)” value was “statistically significant inhibition of neutrophilia”.
